Earlier results on three compounds are cited in patent publication US11083748B2 (priority 2003, dated 2021).

Each structure is given as a SMILES string.

The half-life is the time in which the quantity being followed falls by half.

For data set [1] the following is noted: in vivo, iv.
The test system of another data set is patients. The settings on record: human, in vivo.

In the case of `O=C(O)CN(CCN(CC(=O)O)CC(=O)O)CC(=O)O` [EDTA, ethylenediamine tetraacetic acid], in data set [1], the “fraction of the drug remaining one hour following administration” value is on record as “one-half” and the half-life was 20 to 60 min.
Turning to `CC(C)(S)[C@@H](N)C(=O)O` [Penicillamine, beta,beta-dimethylcysteine], the solubility in water entry is listed as “freely soluble”.
For the compound `O=C(O)C(S)C(S)C(=O)O` (stereo not shown) [Succimer, dimercaptosuccinic acid], the “patients with drug-induced elevations of liver transaminases (mild and transient)” value with patients is “up to 10%”.
